US9486423B2, “Redox-directed chelators targeting intracellular metal ions” (THE ARIZONA BOARD OF REGENTS ON BEHALF OF THE UNIVERSITY OF …, priority 2014, dated 2016)

Tests used:
[1] = test system: SK-N-MC (neuroepithelioma) cells; experiment: MTT assay of cell viability, SK-N-MC; format: cell-based; settings: 48 h exposure, in the presence of human holotransferrin
Method: (§1) The present inventors have also investigated the antiproliferative activity of series of pro-chelators and chelators of the invention towards human cell lines. MTT assays of cell viability (Table 1) were performed on two cancer cell lines, neuroepithelioma SK-N-MC and breast adenocarcinoma MDA-MB-231, which are well studied in the context of iron deprivation. The established antiproliferative iron chelator DFO was used as a control and its toxicity profiles compared well to literature ones for these cell lines. Viability measurements were conducted in the presence of human holotransferrin in order to load intracellular iron pools and assess antiproliferative activity related to intracellular iron deprivation.
(§2) MDA-MB-231 (ATCC® HTB-26™) breast adenocarcinoma cells and SK-N-MC (ATCC® HTB-10™) neuroepithelioma cells were cultured under a 5% CO2 humidified atmosphere at 37° C. in Eagle's Minimal Essential Medium (EMEM) supplemented with 10% fetal bovine serum (FBS), glutamine (2 mM), sodium pyruvate (1 mM), sodium bicarbonate ([…]), penicillin (100 units/mL), streptomycin (100 μg/mL) and 1.25 μM (1 mg/10 mL) human holo-transferrin (Aldrich) prior to use. Jurkat T lymphocytes (ATCC® T1B-152™) were cultured at 37° C. under a 5% CO2 humidified atmosphere in RPMI 1640 media supplemented with 10% FBS, penicillin (5 mg/ml) and streptomycin (1 mg/ml), and maintained at a density lower than 2.0×10^6 cells/mL.

[2] = test system: MDA-MB-231 (breast adenocarcinoma) cells; experiment: MTT assay of cell viability, MDA-MB-231; format: cell-based; settings: in the presence of human holotransferrin
Method: as §1, §2

[3] = Cyclic voltammetry in DMF; format: physicochemical; settings: glassy carbon electrode
Text: FIG. 10 is a cyclic voltammograms of disulfides 1a-c at a glassy carbon electrode in DMF with (n-Bu4N)(PF6) as supporting electrolyte. Data collected at a 100 mVS^−1 sweep rate using Ag/AgNO3 reference electrode and a platinum wire auxiliary electrode.
The reduction of disulfides 1a-c was investigated by electrochemical methods in N,N-dimethylformamide. FIG. 10. The collected cyclic voltammograms present irreversible cathodic peaks that are characteristic of aromatic disulfide reduction and correspond to the two-electron reductive process leading to formation of two thiolate ions. Consistent with reported electronic effects of substituents in aromatic disulfides, peak reduction potentials of compounds 1a-c vary considerably with the substitution on the thiosemicarbazone unit. […] These experiments established that electronic effects of the partially conjugated chelating units modulate the thermodynamic drive to reduction of disulfide constructs. Similarly, it is expected that an electron withdrawing group substituent on the phenyl ring itself (e.g., R^3 and/or R^4 in Formula I) will also result in lower reduction potential. As used herein, the term “electron withdrawing group” refers to any substituent that draws electron density away from a given center (e.g., disulfide or thiol group in compounds 1a-c and 2a-c, respectively). […]

[4] = Equilibration in GSH/GSSG redox buffer solutions at different half-cell potentials; format: physicochemical; settings: half-cell potentials of −220 mV or lower (vs SHE); 12.5 μM disulfide, 11-13 mM total glutathione, 2 h
Method: FIG. 3 is a graph showing the fraction of reduced chelator TC1-SH obtained from UV-visible absorption data in GSH/GSSG redox buffer solutions at different half-cell potentials. Total ([GSH]+[GSSG]) was maintained at 11-13 mM, whereas initial [(TC1-S)2] was 12.5 μM. Samples were allowed to equilibrate for 2 h. Data points are plotted as average of triplicate measurements±standard deviation.
In order to estimate the speciation of the prochelator/chelator system in solutions containing glutathione levels reflecting biologically relevant conditions, disulfide (TC1-S)2 was allowed to equilibrate in a series of redox buffer mixtures. The half-cell potentials for the solutions were calculated based on the concentrations of GSH and GSSG and they were selected to include values from those typically associated to proliferating cells (−240 mV vs SHE) to those found in necrotic cells (−180 mV). […] FIG. 3. As such, in this model of intracellular conditions containing micromolar chelation system and millimolar glutathione buffer, the chelation system after equilibration was found prevalently in its reduced iron-binding form at glutathione half-cell potentials that are characteristic of proliferating and malignant cells.

[5] = test system: MRC-5 (normal lung fibroblast) cells; experiment: MTT assay of cell viability, MRC-5; format: cell-based, human; settings: for IC50: MTT assay, 72 h exposure; for toxicity in normal lung fibroblasts (comparison): normal cells
Method: as §1
Because normal cells divide at a lower rate, MTT assays were performed after exposures of 48 h and also 72 h (Table 1).

MDA-MB-231 cells [6] = experiment: Intracellular ROS generation, oxidation of DCFH2 to DCF; format: cell-based, human; settings: 30 min incubation, compared to H2O2 (100 μM) positive control
Method: FIG. 8 is a bar graph showing intracellular generation of ROS monitored through the oxidation of DCFH2 to fluorescent DCF (ex: 485 nm, em: 528 nm). MDA-MB-231 cells were treated with DCFH2-DA (10 μM, 10 min), washed and then incubated with test compounds (concentrations as shown, 30 min). H2O2 (100 μM) was employed as a positive control. Measurements were conducted in triplicate and reported as average±standard deviation.
The in-vitro results above were confirmed in cultures of MBA-MD-231 breast carcinoma cells using a fluorescence-based assay of ROS generation. Added to the growth media, cell-permeable dihydrodichlorofluorescein diacetate (DCFH2-DA) was hydrolized intracellularly to trap the probe dihydrodichlorofluorescein (DCFH2), which was oxidized by several ROS to give the bright fluorescent product dichlorofluorescein. […] FIG. 8.

[7] = Reduction by GSH monitored by UV-visible absorption spectroscopy; format: physicochemical; settings: GSH 11.0 mM
Method: FIG. 2 is a graph showing reduction of (TC1-S)2 (9.0 μM) by GSH (11.0 mM) as monitored by UV-visible absorption spectroscopy in buffered aqueous solution (50 mM PIPES, pH 7.4) at 25° C. Spectral changes during the reduction of (TC1-S)2 (Line 2, […]) to TC1-SH (Line 1) by GSH (11.0 mM). The reaction goes to substantial completion within 2 h.
The reduction of (TC1-S)2 can be monitored in vitro by UV-visible absorption spectroscopy. FIG. 2.

Jurkat cells = experiment: Calcein-AM fluorescence assay of intracellular iron binding; format: cell-based, human; settings: suspended Jurkat cells loaded with calcein; SIH added after (TC1-S)2
Text: FIG. 5 is a graph showing displacement of paramagnetic ions and restoration of calcein fluorescence by addition of chelators (TC1-S)2 and SIH at the indicated times and final concentrations in suspended Jurkat cell cultures. Fluorescence intensity at 517 nm (excitation, 488 nm) is plotted as the difference from the initial values before any addition. DMSO concentration was kept constant in all solutions.
Intracellular iron binding was first examined using calcein-AM, the acetoxymethyl ester of a fluorescein-based sensor of metal ions in biological specimens. Trapped intracellularly upon hydrolysis of the ester groups by esterases, calcein coordinates iron and possibly other (far less abundant) cations (e.g., Cu(II) and Zn(II)). Calcein stabilizes ferric iron coordination and this paramagnetic ion quenches considerably its fluorescence emission.

MDA-MB-231 cells [8] = experiment: Effect of NAC supplementation on toxicity (viability assay); format: cell-based, human; settings: 10.0 μM compound, 48 h, after 6 h NAC
Method: FIG. 4 is a bar graph showing the effect of N-acetyl cystein (NAC) supplementation on the toxicity of DFO (10 μM) and (TC1-S)2 (10 μM). MDA-MB-231 cells were incubated with NAC for 6 h before treatment with DFO (10.0 μM) or (TC1-S)2 (10.0 μM) for 48 h. Percent viability is expressed relative to control treated with DMSO and averaged over three experiments±percent standard deviation.
The control of reducing conditions employed in vitro in the experiments summarized above cannot be achieved in cell culture; nevertheless, the intracellular concentration of GSH can be increased by supplementing with N-acetyl cysteine (NAC), a precursor required for GSH biosynthesis. […] FIG. 4.

[9] = test system: ribonucleotide reductase (RNR) tyrosyl radical in Jurkat cells; experiment: Whole-cell EPR of the tyrosyl radical of ribonucleotide reductase; format: cell-based, human; settings: 50 μM
Method: FIG. […] Experimental conditions: microwave frequency, 9.338 GHz; microwave power, 2 mW; magnetic field modulation amplitude, 0.5 mT; temperature, 30° K.
EPR data were also used to examine the effect of chelation system on the tyrosyl radical that characterizes the active site of ribonucleotide reductase (RNR), the iron-dependent enzyme that is believed to be essential in DNA biosynthesis.

[10] = Iron coordination with Fe(BF4)2.6H2O; format: binding; settings: organic solvents and buffered aqueous solutions
Text: Consistent with the modest coordinating ability of disulfide linkages in general and the conformational restraints they impose on the joint thiosemicarbazone units in this case, disulfides 1a-c behave as masked pro-chelators of low iron coordinating ability.
Conversely, thiols 2a-c react readily with Fe(BF4)2.6H2O in organic solvents and in buffered aqueous solutions. From reactions in THF, iron complexes 3a-c were isolated by crystallization and characterized by high-resolution mass spectrometry and elemental analysis. Complexes 3a (FIG. 11) and 3b were also characterized by single crystal X-ray diffraction analysis.

[11] = clinical trials terminated; cited from earlier work

`NC(=S)NN=Cc1ccccc1SSc1ccccc1C=NNC(N)=S` [Compound 1a] showed an IC50 [1] of 8.91 ± 0.09 µM and an IC50 ([2]; 48 h exposure) of 22.07 ± 0.04 µM.
In the case of `S=C(NN=Cc1ccccc1SSc1ccccc1C=NNC(=S)Nc1ccccc1)Nc1ccccc1` [Compound 1c], the “ease of disulfide reduction (peak reduction potential)” value [3] is reported as “easier to reduce compared to analogues 1a and 1b”, the IC50 [1] is reported as 6.81 ± 0.17 µM and the “estimated equilibrium percentage of thiol” value [4] is reported as “greater than 80%”. For the same compound, the IC50 [5] was 30.91 ± 0.02 µM, the “toxicity in normal lung fibroblasts (comparison)” value [5] was “significantly less toxic than its corresponding thiol 2c” and the “toxicity in normal lung fibroblasts (comparison)” value ([5]; listed as (TC1-S)2) was “significantly less toxic than DFO”. For the same compound, the “intracellular generation of ROS (DCF fluorescence)” value (MDA-MB-231 cells [6]) was “did not elicit significant turn-on response”, the “time to substantial completion of reduction to TC1-SH” value ([7]; 9.0 μM disulfide, 50 mM PIPES, pH 7.4, 25° C.) was ≤ 2 h and the “conversion of disulfide to thiol” value ([7]; neutral buffered aqueous solution, 9.0 μM) was “converted substantially quantitatively”. For the same compound, the IC50 ([2]; 48 h exposure) was 4.59 ± 0.06 µM, the IC50 ([2]; 48 h exposure, listed as (TC1-S)2) was 4.6 µM and the calcein fluorescence intensity (Jurkat cells) was “concentration-dependent increase in fluorescence intensity”. For the same compound, the “effect of increasing NAC on toxicity” value (MDA-MB-231 cells [8]) was “more susceptible” and the “RNR tyrosyl radical EPR signal” value ([9]; 1 h) was “decrease in RNR signal amplitude”.
In the case of `S=C(NN=Cc1ccccc1S)Nc1ccccc1` [Compound 2c], the IC50 [1] is reported as 5.19 ± 0.17 µM, the IC50 [5] is reported as 15.08 ± 0.02 µM and the “intracellular generation of ROS (DCF fluorescence)” value (MDA-MB-231 cells [6]) is reported as “did not elicit significant turn-on response”. The “stability of thiol in solution” value ([7]; neutral buffered aqueous solution) was “over 6 h”, the IC50 ([2]; 48 h exposure) was 15.01 ± 0.05 µM and the iron coordination [10] was “readily coordinates Fe(II) ions”.
For `NC(=S)NN=Cc1ncccc1N` [Compound 3-AP, 3-Aminopyridine-2-carboxaldehyde thiosemicarbazone], the adverse side effects [11] is given as “methemoglobinemia”.
Compound `CC(=O)N(O)CCCCCNC(=O)CCC(=O)N(O)CCCCCNC(=O)CCC(=O)N(O)CCCCCN` [DFO, desferrioxamine, reference compound] has an IC50 ([1]; SK-N-MC) of 10.02 ± 0.06 µM, an IC50 ([5]; Homo sapiens, MRC5) of 8.04 ± 0.03 µM and an IC50 ([2]; Homo sapiens, MDA-MB-231, 48 h, 48 h exposure) of 17 µM. The IC50 ([2]; MDA-MB-231, 48 h exposure) was 17.05 ± 0.05 µM, the “effect of increasing NAC on toxicity” value (MDA-MB-231 cells [8]) was “not affected significantly” and the “RNR tyrosyl radical EPR signal” value ([9]; 3 h) was “loss of signal”.
With `O=C(NN=Cc1ccccc1O)c1ccncc1` [SIH, salicylaldehyde isonicotinoyl hydrazone, reference compound] the calcein fluorescence intensity (Jurkat cells) was “further increased fluorescence intensity”.
